Laboratory results taken from patent publication US20080194616A1, “PYRIDOPYRIMIDINONE COMPOUNDS USEFUL IN TREATING SODIUM CHANNEL-MEDIATED DISEASES OR CONDITIONS” (Xenon Pharmaceuticals Inc., priority 2007, published 2008).
Where a name gives a salt, the structure may show the parent alone.

What was measured:
sodium channel = assay: Guanidine Influx Assay (In Vitro Assay); type: cell-based, human or rat; details: known cell line that expresses a sodium channel; read-out: IC50 Activity Level
Source text: This example describes an in vitro assay for testing and profiling test agents against human or rat sodium channels stably expressed in cells of either an endogenous or recombinant origin. The assay is also useful for determining the IC-50 of a sodium channel blocking compound. The assay is based on the guanidine flux assay described by Reddy, N. L., et al., J. Med. Chem. (1998), 41(17):3298-302.
The guanidine influx assay is a radiotracer flux assay used to determine ion flux activity of sodium channels in a high-throughput microplate-based format. The assay uses ^14C-guanidine hydrochloride in combination with various known sodium channel modulators, to assay the potency of test agents. Potency is determined by an IC-50 calculation. Selectivity is determined by comparing potency of the compound for the channel of interest to its potency against other sodium channels (also called ‘selectivity profiling’).
Each of the test agents is assayed against cells that express the channels of interest. Voltage gated sodium channels are either TTX sensitive or insensitive. This property is useful when evaluating the activities of a channel of interest when it resides in a mixed population with other sodium channels. The following Table 1 summarizes cell lines useful in screening for a certain channel activity in the presence or absence of TTX.
Cells expressing the channel of interest are grown according to the supplier or in the case of a recombinant cell in the presence of selective growth media such as G418 (Gibco/Invitrogen). The cells are disassociated from the culture dishes with an enzymatic solution (1×) Trypsin/EDTA (Gibco/Invitrogen) and analyzed for density and viability using haemocytometer (Neubauer). Disassociated cells are washed and resuspended in their culture media then plated into Scintiplates (Beckman Coulter Inc.) (approximately 100,000 cells/well) and incubated at 37° C./5% CO2. for 20-24 hours. After an extensive wash with Low sodium HEPES-buffered saline solution (LNHBSS) (150 mM Choline Chloride, […] (Sigma), 1 mM Calcium Chloride, 5 mM Potassium Chloride, 1 mM Magnesium Chloride, 10 mM Glucose) agents diluted with LNHBSS are added to each well. (Varying concentrations of test agent may be used). The activation/radiolabel mixture contains aconitine (Sigma), and ^14C-guanidine hydrochloride (ARC).
After loading the cells with test agent and activation/radiolabel mixture, the Scintiplates are incubated at ambient temperature. Following the incubation, the Scintplates are extensively washed with LNHBSS supplemented with guanidine (Sigma). The Scintiplates are dried and then counted using a Wallac MicroBeta TriLux (Perkin-Elmer Life Sciences). The ability of the test agent to block sodium channel activity is determined by comparing the amount of ^14C-guanidine present inside the cells expressing the different sodium channels.
IC-50 value of a test agent for a specific sodium channel may be determined using the above general method. IC-50 may be determined using a 3,8,10,12 or 16 point curve in duplicate or triplicate with a starting concentration of 1, 5 or 10 μM diluted serially with a final concentration reaching the sub-nanomolar, nanomolar and low micromolar ranges. Typically the mid-point concentration of test agent is set at 1 μM, and sequential concentrations of half dilutions greater or smaller are applied (e.g. 0.5 μM; […] and 0.25 μM; 10 μM and 0.125 μM; 20 μM etc.). The IC-50 curve is calculated using the 4 Parameter Logistic Model or Sigmoidal Dose-Response Model formula (fit=(A+((B−A)/(1+((C/x)̂D)))).

melting point | IC50 (sodium channel) [µM] | SMILES
132 to 140 °C |  | CCCCc1nc2ccccn2c(=O)c1-c1ccc(O[C@@H]2CCNC2)cc1 (as salt: hydrochloride) [Example 15, (R)-2-butyl-3-{4-[pyrrolidin-3-yloxy]phenyl}-4H-pyrido[1,2-a]pyrimidin-4-one hydrochloride]
118 to 120 °C |  | CCCCc1nc2ccccn2c(=O)c1-c1ccccc1Cl [Example 1.6, 2-butyl-3-(2-chlorophenyl)-4H-pyrido[1,2-a]pyrimidin-4-one]
122 to 124 °C |  | CCCCc1nc2ccccn2c(=O)c1-c1ccc(Cl)c(C)c1 [Example 1.10, 2-butyl-3-(4-chloro-3-methylphenyl)-4H-pyrido[1,2-a]pyrimidin-4-one]
113 to 115 °C |  | CCCCc1nc2ccccn2c(=O)c1-c1ccc(OC)c(Cl)c1 [Example 1.13, 2-butyl-3-(3-chloro-4-methoxyphenyl)-4H-pyrido[1,2-a]pyrimidin-4-one]
132 to 135 °C |  | CCCCc1nc2ccccn2c(=O)c1-c1ccc2[nH]ccc2c1 [Example 1.30, 2-butyl-3-(1H-indol-5-yl)-4H-pyrido[1,2-a]pyrimidin-4-one]
 | ≥ 10 | CCCCc1nc2ccccn2c(=O)c1-c1ccc2c(c1)CCN2 [Example 2, 2-butyl-3-(indolin-5-yl)-4H-pyrido[1,2-a]pyrimidin-4-one hydrochloride]
 | ≥ 10 | CCc1nc2ccccn2c(=O)c1-c1ccc(N[C@@H]2CCN(C(=O)OC(C)(C)C)C2)cc1 [Example 3.4, (R)-tert-butyl 3-(4-(2-ethyl-4-oxo-4H-pyrido[1,2-a]pyrimidin-3-yl)phenylamino)pyrrolidine-1-carboxylate]
208 to 211 °C |  | CC(C)Nc1nc2ccccn2c(=O)c1-c1ccc(N[C@@H]2CCN(C(=O)OC(C)(C)C)C2)cc1 [Example 3.23, (R)-tert-butyl 3-[(4-{2-[(1-methylethyl)amino]-4-oxo-4H-pyrido[1,2-a]pyrimidin-3-yl}phenyl)amino]pyrrolidine-1-carboxylate]
 | ≥ 10 | CCCCc1nc2ccccn2c(=O)c1-c1ccc(NC2CCOCC2)cc1 [Example 3.26, 2-butyl-3-[4-(tetrahydro-2H-pyran-4-ylamino)phenyl]-4H-pyrido[1,2-a]pyrimidin-4-one hydrochloride]
 | ≥ 10 | CCCCc1nc2ccccn2c(=O)c1-c1ccc(NC[C@H]2CCCO2)cc1 [Example 3.27, (R)-2-butyl-3-(4-{[tetrahydrofuran-2-ylmethyl]amino}phenyl)-4H-pyrido[1,2-a]pyrimidin-4-one hydrochloride]
 | ≥ 10 | CCCCc1nc2ccccn2c(=O)c1-c1ccc(NC2CCCNC2)cc1 (stereo not shown) [Example 6, 2-butyl-3-[4-(piperidin-3-ylamino)phenyl]-4H-pyrido[1,2-a]pyrimidin-4-one hydrochloride]
141 to 143 °C |  | CCCCc1nc2ccccn2c(=O)c1-c1ccc(N[C@@H]2CCN(C)C2)cc1 [Example 10, (R)-2-butyl-3-(4-{[1-methylpyrrolidin-3-yl]amino}phenyl)-4H-pyrido[1,2-a]pyrimidin-4-one]

Continued, molecule first:

SMILES | melting point | IC50 (sodium channel) [µM]
CCCCc1nc2ccccn2c(=O)c1-c1ccc(N(C)C2CCCNC2)cc1 (stereo not shown) (as salt: hydrochloride) [Example 17, 2-butyl-3-{4-[methyl(piperidin-3-yl)amino]phenyl}-4H-pyrido[1,2-a]pyrimidin-4-one hydrochloride] | 170 to 185 °C | 
CCCCc1nc2ccccn2c(=O)c1-c1ccc(OS(=O)(=O)C(F)(F)F)cc1 (as salt: methanesulfonate) [Example 12, 4-(2-butyl-4-oxo-4H-pyrido[1,2-a]pyrimidin-3-yl)phenyl trifluoromethanesulfonate] | 106 to 108 °C | 
COc1nc2ccccn2c(=O)c1-c1ccc(NC2CCNC2)cc1 (stereo not shown) (as salt: trifluoroacetate) [Example 9, 2-methoxy-3-[4-(pyrrolidin-3-ylamino)phenyl]-4H-pyrido[1,2-a]pyrimidin-4-one trifluoroacetate] | 56 to 58 °C | 
CCCOc1nc2ccccn2c(=O)c1-c1ccc(N[C@@H]2CCNC2)cc1 (as salt: trifluoroacetate) [Example 9.1, (R)-2-propoxy-3-(4-(pyrrolidin-3-ylamino)phenyl)-4H-pyrido[1,2-a]pyrimidin-4-one trifluoroacetate] | > 100 °C (dec.) | 
CCCCc1nc2ccccn2c(=O)c1-c1ccc(OC)cc1 [Example 1, 2-butyl-3-(4-methoxyphenyl)-4H-pyrido[1,2-a]pyrimidin-4-one] |  | ≥ 10
CCCc1nc2ccccn2c(=O)c1-c1ccc(Cl)cc1 [Example 1.4, 3-(4-chlorophenyl)-2-propyl-4H-pyrido[1,2-a]pyrimidin-4-one] | 109 to 110 °C | 
CCCCc1nc2ccccn2c(=O)c1-c1ccc(Cl)cc1 [Example 1.8, 2-butyl-3-(4-chlorophenyl)-4H-pyrido[1,2-a]pyrimidin-4-one] |  | ≥ 10
CCCCc1nc2ccccn2c(=O)c1-c1ccc(Cl)cc1C [Example 1.9, 2-butyl-3-(4-chloro-2-methylphenyl)-4H-pyrido[1,2-a]pyrimidin-4-one] | 105 to 107 °C | 
CC(C)CCc1nc2ccccn2c(=O)c1-c1ccc(Cl)cc1 [Example 1.17, 3-(4-chlorophenyl)-2-isopentyl-4H-pyrido[1,2-a]pyrimidin-4-one] | 146 to 149 °C | 
CCCCc1nc2cc(C(F)(F)F)ccn2c(=O)c1-c1ccc(Cl)cc1 [Example 1.21, 2-butyl-3-(4-chlorophenyl)-8-(trifluoromethyl)-4H-pyrido[1,2-a]pyrimidin-4-one] |  | ≥ 10
CCCOc1nc2ccccn2c(=O)c1-c1ccc(Cl)cc1 [Example 1.25, 2-propoxy-3-(4-chlorophenyl)-4H-pyrido[1,2-a]pyrimidin-4-one] |  | 1 to 10
COCCc1nc2ccccn2c(=O)c1-c1ccc(Cl)cc1 [Example 1.26, 3-(4-chlorophenyl)-2-(2-methoxyethyl)-4H-pyrido[1,2-a]pyrimidin-4-one] | 116 to 118 °C | 
CCCCc1nc2ccccn2c(=O)c1-c1ccc(NC2CCN(C(=O)OC(C)(C)C)C2)cc1 (stereo not shown) [Example 3.7, tert-butyl 3-{[4-(2-butyl-4-oxo-4H-pyrido[1,2-a]pyrimidin-3-yl)phenyl]amino}pyrrolidine-1-carboxylate] | 116 to 118 °C | 
CCCCc1nc2ccccn2c(=O)c1-c1ccc(N[C@H]2CCN(C(=O)OC(C)(C)C)C2)cc1 [Example 3.8, (S)-tert-butyl 3-(4-(2-butyl-4-oxo-4H-pyrido[1,2-a]pyrimidin-3-yl)phenylamino)pyrrolidine-1-carboxylate] | 95 to 96 °C | 
CCCCc1nc2ccccn2c(=O)c1-c1ccc(N[C@@H]2CCN(C(=O)OC(C)(C)C)C2)cc1 [Example 3.9, (R)-tert-butyl 3-(4-(2-butyl-4-oxo-4H-pyrido[1,2-a]pyrimidin-3-yl)phenylamino)pyrrolidine-1-carboxylate] | 98 to 99 °C | 
CCCCc1nc2ccccn2c(=O)c1-c1ccc(N2CCOCC2)cc1 [Example 3.25, 2-butyl-3-(4-morpholin-4-ylphenyl)-4H-pyrido[1,2-a]pyrimidin-4-one] |  | ≥ 10
CCCCc1nc2ccccn2c(=O)c1-c1ccc(NC[C@@H]2CCCO2)cc1 [Example 3.28, (S)-2-butyl-3-(4-{[tetrahydrofuran-2-ylmethyl]amino}phenyl)-4H-pyrido[1,2-a]pyrimidin-4-one hydrochloride] |  | ≥ 10
CCCCc1nc2ccccn2c(=O)c1-c1ccc(N[C@@H]2CCOC2)cc1 [Example 3.29, (R)-2-butyl-3-{4-[tetrahydrofuran-3-ylamino]phenyl}-4H-pyrido[1,2-a]pyrimidin-4-one hydrochloride] |  | ≥ 10
CCCCc1nc2ccccn2c(=O)c1-c1ccc(NC2CCNCC2)cc1 [Example 6.1, 2-butyl-3-[4-(piperidin-4-ylamino)phenyl]-4H-pyrido[1,2-a]pyrimidin-4-one hydrochloride] |  | ≥ 10
